Laboratory results: patent US20140170237A1, “ANTIMICROBIAL COMPOSITIONS CONTAINING MIXTURES OF FATTY AND HYDROXYL CARBOXYLIC ACIDS” (priority 2012, published 2014)
“Also recorded” adds a separate entry of the source.

Test: Cold solubility / 4 C storage of commercial fatty acids and their mixtures
Format: physicochemical
Settings: 1 day, no solvent or surfactant

CCCCCCCCCCCC(=O)O [C12, dodecanoic]
4 C. Storage, physical state: solid or formed crystals; also recorded: Solid
